Measurements from US20250034170A1, “SMALL MOLECULE MODULATORS OF GLUCOCEREBROSIDASE ACTIVITY AND USES THEREOF” (Vanqua Bio, Inc., priority 2021, published 2025).

What follows are molecules tested against T1, GCase (Homo sapiens, UniProt P04062) (assay: activation of GCase in a live cell PFB assay in HELA cells). Conditions: EC50 given as range classes.
T1 construct: endogenous in cells; host or cells: HeLa cells
T1 sequence (P04062 40-536): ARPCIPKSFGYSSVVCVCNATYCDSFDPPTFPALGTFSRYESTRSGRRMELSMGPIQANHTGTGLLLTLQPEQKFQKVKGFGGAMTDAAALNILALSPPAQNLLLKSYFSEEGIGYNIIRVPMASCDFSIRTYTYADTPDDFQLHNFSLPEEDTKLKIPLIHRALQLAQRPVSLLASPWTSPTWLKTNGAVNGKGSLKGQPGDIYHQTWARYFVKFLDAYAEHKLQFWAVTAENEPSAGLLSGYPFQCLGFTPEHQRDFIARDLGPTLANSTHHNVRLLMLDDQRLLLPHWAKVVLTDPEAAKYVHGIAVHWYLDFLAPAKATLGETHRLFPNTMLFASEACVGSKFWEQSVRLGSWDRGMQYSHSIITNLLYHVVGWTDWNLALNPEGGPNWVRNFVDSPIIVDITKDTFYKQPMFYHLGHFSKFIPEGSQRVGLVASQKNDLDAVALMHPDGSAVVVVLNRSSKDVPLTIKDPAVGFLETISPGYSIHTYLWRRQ
Format: cell-based
Description: Exemplary compounds were evaluated for activation of GCase in a live cell PFB assay in HELA cells (essentially as described in Ysselstein et al., “LRRK2 kinase activity regulates lysosomal glucocerebrosidase in neurons derived from Parkinson's disease patients” Nature Communications (2019) 10:5570). […] EC50 ranges: A: <10 μM; B: >10-50 μM; C: >50-100 μM; D: >100 μM.

Structure (SMILES)	EC50
O=S(=O)(c1ccccc1F)N1CC2(CCN(c3cnc4cnn(CC(F)F)c4n3)C2)C1 [Cmpd 395]	< 10 µM
FC(F)(F)c1cc(N2CC3(CCN(c4cncc(-c5nccs5)n4)C3)C2)ccn1 [Cmpd 1027]	10 to 50 µM
Cc1ncc(CN2CC3(CCN(c4cnc5cnn(CC(F)F)c5n4)CC3)CC2=O)s1 [Cmpd 423]	10 to 50 µM
O=C1N(c2ncc3cnn(CC(F)F)c3n2)CCC12CN(c1ccnc(C(F)(F)F)c1)C2 [Cmpd 999]	10 to 50 µM

Same assay, conditions: activation of GCase, EC50 ranges

Structure (SMILES)	EC50
COc1nn(CC(F)F)c2nc(N3CCC4(C3)CN(c3cnc(C(F)(F)F)nc3C)C4)cnc12 [Cmpd 1093]	10 to 50 µM
Cn1c(N2CCC3(CC2)CC(=O)N(Cc2cnc(C(F)(F)F)nc2)C3)nc2c(cnn2CC(F)F)c1=O [Cmpd 926]	10 to 50 µM
CCOc1ncc(N2CCC3(CCN(c4cnc5cnn(CC(F)F)c5n4)CC3)C2)cn1 [Cmpd 763]	< 10 µM
CCn1c(N2CCC3(CN(c4cc(C(F)(F)F)nc(C)n4)C3)C2)nc2c(cnn2CC(F)(F)F)c1=O [Cmpd 1114]	< 10 µM
FC(F)(F)c1ncc(N2CC3(CCN(c4cnc5cnn(C6CCCCO6)c5n4)C3)C2)cn1 (centres unmarked) [Cmpd 470]	10 to 50 µM
Cc1cc(N2CC3(CCN(c4ncc5cnn(CC(F)F)c5n4)C3)C2)nc(C(F)(F)F)n1 [Cmpd 466]	> 100 µM
Cc1ncc(N2CCC3(CCN(c4cnc5cnn(CC(F)F)c5n4)CC3)C2)cn1 [Cmpd 759]	< 10 µM
FC(F)Cn1ncc2ncc(N3CCC4(CC3)CC(COc3cccnc3C(F)(F)F)C4)nc21 [Compound 89, 7-[1-(2,2-difluoroethyl)-1H-pyrazolo[3,4-b]pyrazin-6-yl]-2-({[2-(trifluoromethyl)pyridin-3-yl]oxy}methyl)-7-azaspiro[3.5]nonane]	10 to 50 µM
Cc1nn(CC(F)F)c2nc(N3CC4(CCN(c5ccnc(C(F)(F)F)c5)C4)C3)ncc12 [Cmpd 352]	< 10 µM
Cc1nc(N2CC3(CCN(c4cnc5cnn(CC(C)(F)F)c5n4)C3)C2)cc(C(F)(F)F)n1 [Cmpd 1117]	> 100 µM
O=S(=O)(c1cccc(C(F)(F)F)c1)N1CC2(CCN(c3cnc4cnn(CC(F)F)c4n3)C2)C1 [Cmpd 374]	10 to 50 µM
FC(F)Cn1ncc2ncc(N3CC4(CCCN(c5cccnc5C(F)(F)F)C4)C3)nc21 [Compound 9, 2-[1-(2,2-difluoroethyl)-1H-pyrazolo[3,4-b]pyrazin-6-yl]-6-[2-(trifluoromethyl)pyridin-3-yl]-2,6-diazaspiro[3.5]nonane]	< 10 µM
Cc1cc(C(F)(F)F)cnc1N1CC2(CCN(c3cnc4cnn(CC(F)F)c4n3)C2)C1 [Cmpd 437]	50 to 100 µM
FC(F)(F)c1ccnc(N2CC3(CCN(c4cnc5cnn(C6COC6)c5n4)CC3)C2)c1 [Cmpd 493]	< 10 µM
O=C1CC2(CCN(c3cnc4cnn(CC(F)F)c4n3)CC2)CN1Cc1ccnc(C(F)(F)F)c1F [Cmpd 966]	< 10 µM
O=C1CC2(CCN(c3ccc(C(F)(F)F)cn3)CC2)CN1c1cnc2cnn(CC(F)F)c2n1 [Compound 112, 2-[1-(2,2-difluoroethyl)-1H-pyrazolo[3,4-b]pyrazin-6-yl]-8-[5-(trifluoromethyl)pyridin-2-yl]-2,8-diazaspiro[4.5]decan-3-one]	10 to 50 µM
COc1nn(C2COC2)c2nc(N3CCC4(CN(c5ccnc(C(F)(F)F)c5)C4)C3)ncc12 [Cmpd 945]	10 to 50 µM
FC(F)(F)c1ccc(N2CCC3(CCN(c4cncc(-n5cccn5)n4)CC3)C2)cn1 [Cmpd 239]	< 10 µM
FC(F)Cn1ncc2ncc(N3CCC4(C3)CN(c3ccnc(C(F)(F)F)c3)C4)cc21 [Cmpd 635]	< 10 µM
CC(C)Cn1ncc2ncc(N3CCC4(CN(c5ccnc(C(F)(F)F)c5)C4)C3)nc21 [Cmpd 1126]	< 10 µM
O=C1N(c2cncc(C(F)(F)F)n2)CCC12CCN(c1cnc3cnn(C4COC4)c3n1)CC2 [Cmpd 276]	10 to 50 µM
FC(F)Cn1ncc2ncc(N3CC4(CN(c5ccc(C(F)(F)F)nc5)CCO4)C3)nc21 [Compound 173, 2-[1-(2,2-difluoroethyl)-1H-pyrazolo[3,4-b]pyrazin-6-yl]-8-[6-(trifluoromethyl)pyridin-3-yl]-5-oxa-2,8-diazaspiro[3.5]nonane]	10 to 50 µM
